{"source": "paper PMC5672800", "about": "(Journal of medicinal chemistry, 2017)", "key": {"[1]": {"test_system": "human MC3R", "settings": "cited from earlier work"}, "[2]": {"biological_target": "T1, mMC3R (Mus musculus, UniProt P33033)", "T1 sequence (P33033 whole entry)": "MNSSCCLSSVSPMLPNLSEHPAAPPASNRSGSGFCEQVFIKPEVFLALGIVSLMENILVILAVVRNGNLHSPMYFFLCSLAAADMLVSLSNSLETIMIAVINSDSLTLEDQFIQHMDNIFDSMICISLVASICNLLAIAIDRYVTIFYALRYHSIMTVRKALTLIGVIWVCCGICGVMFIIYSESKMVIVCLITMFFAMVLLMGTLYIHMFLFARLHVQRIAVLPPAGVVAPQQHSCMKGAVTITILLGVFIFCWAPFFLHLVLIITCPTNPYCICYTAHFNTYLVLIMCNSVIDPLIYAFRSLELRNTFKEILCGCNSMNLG", "settings": "read-out: mMC3R EC50; cited from earlier work"}, "[3]": {"biological_target": "mMC4R (Mus musculus, UniProt P56450)", "sequence (P56450 whole entry)": "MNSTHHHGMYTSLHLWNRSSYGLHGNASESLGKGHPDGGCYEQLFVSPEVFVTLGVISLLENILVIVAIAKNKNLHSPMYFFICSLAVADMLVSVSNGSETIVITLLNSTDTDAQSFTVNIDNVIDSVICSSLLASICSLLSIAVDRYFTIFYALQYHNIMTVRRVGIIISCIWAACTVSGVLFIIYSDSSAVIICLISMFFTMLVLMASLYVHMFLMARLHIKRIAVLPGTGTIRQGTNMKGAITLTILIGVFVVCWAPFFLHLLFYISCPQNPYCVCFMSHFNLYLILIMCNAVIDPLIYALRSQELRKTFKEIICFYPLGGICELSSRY", "settings": "read-out: mMC4R EC50; cited from earlier work"}, "[4]": {"biological_target": "T1, mMC3R", "assay": "125I-NDP-MSH competitive binding assay at mMC3R", "settings": "vs Ac-His-DPhe-Arg-Trp-NH2; negative = more potent than control"}, "[5]": {"test_system": "human MC4R", "settings": "cited from earlier work"}, "[6]": {"test_system": "hMC4R", "settings": "cited from earlier work"}}}
{"compound": "CC(=O)N[C@@H](Cc1c[nH]cn1)C(=O)N[C@H](Cc1ccccc1)C(=O)N[C@@H](CCCNC(=N)N)C(=O)N[C@@H](Cc1c[nH]c2ccccc12)C(N)=O", "note": "[Ac-His-DPhe-Arg-Trp-NH2]", "values": [{"measurement": "IC50", "setting": "[1]; read-out: human MC3R IC50, previously reported", "value": "> 10000", "unit": "nM"}]}
{"compound": "Ac-Ser-Tyr-Ser-Nle-Glu-His-Arg-Phe-Phe-Gly-Lys-Pro-Val-NH2 (SYSXEHRFFGKPV; HELM PEPTIDE1{[ac].S.Y.S.[Nle].E.H.R.F.F.G.K.P.V.[am]}$$$$V2.0; SMILES CCCC[C@H](NC(=O)[C@H](CO)NC(=O)[C@H](Cc1ccc(O)cc1)NC(=O)[C@H](CO)NC(C)=O)C(=O)N[C@@H](CCC(=O)O)C(=O)N[C@@H](Cc1c[nH]cn1)C(=O)N[C@@H](CCCNC(=N)N)C(=O)N[C@@H](Cc1ccccc1)C(=O)N[C@@H](Cc1ccccc1)C(=O)NCC(=O)N[C@@H](CCCCN)C(=O)N1CCC[C@H]1C(=O)N[C@H](C(N)=O)C(C)C)", "values": [{"measurement": "EC50", "setting": "[2]", "value": 480, "unit": "nM"}, {"measurement": "EC50", "setting": "[3]", "value": 930, "unit": "nM"}]}
{"compound": "CC(=O)N[C@@H](CCCNC(=N)N)C(=O)N[C@@H](CCCNC(=N)N)C(=O)N[C@H](Cc1ccc(I)cc1)C(=O)N[C@H](Cc1ccc2ccccc2c1)C(N)=O", "note": "[Compound 41, Ac-Arg-Arg-(pI)DPhe-DNal(2′)-NH2]", "values": [{"measurement": "mMC3R (IC50) Fold Diff.", "setting": "[4]", "value": -115}]}
{"compound": "Tic-(pI)DPhe-Arg-Trp-NH2", "values": [{"measurement": "binding to human MC4R", "setting": "[5]", "value": 0.30, "unit": "nM"}, {"measurement": "binding to human MC3R", "setting": "[1]", "value": 75, "unit": "nM"}, {"measurement": "hMC4R agonist activation with respect to maximal response", "setting": "[6]", "value": "> 35", "unit": "%"}, {"measurement": "hMC4R antagonist pA2", "setting": "[6]", "value": 9.10}, {"measurement": "Ki", "setting": "[6]; read-out: hMC4R antagonist Ki", "value": 0.79, "unit": "nM"}]}
